Where two headings read alike, the source gives them in different places.
Columns and labels:
CML-T1 = assay: OncoPanel cell proliferation assay, CML-T1; assay type: cell-based, human; settings: for Relative cell count (%) Mean: CML-T1
Method: (§1) Cells were grown in RPMI 1640, 10% FBS, 2 mM L-alanyl-L-glutamine, 1 mM Na pyruvate, or a special medium. Cells were seeded into 384-well plates and incubated in a humidified atmosphere of 5% CO2 at 37° C. Compounds were added the day following cell seeding. At the same time, a time zero untreated cell plate was generated. After a 3-day incubation period, cells were fixed and stained to allow fluorescence imaging of nuclei. Compounds (1 mM stock solutions) were serially diluted in half-log steps from the highest test concentration ([…]), and assayed over 10 concentrations with a maximum assay concentration of 0.1% DMSO. Automated fluorescence microscopy was carried out using a Molecular Devices ImageXpress Micro XL high-content imager, and images were collected with a 4× objective. 16-bit TIFF images were acquired and analyzed with MetaXpress 5.1.0.41 software.
(§2) Cell proliferation was measured by the fluorescence intensity of an incorporated nuclear dye. The output is referred to as the relative cell count, where the measured nuclear intensity is transformed to percent of control (POC) using the following formula: […]
(§3) Cellular response parameters were calculated using nonlinear regression to a sigmoidal single-site dose response model:
(§4) Where y is a response measured at concentration x, A and B are the lower and upper limits of the response, C is the concentration at the response midpoint (EC50), and D is the Hill Slope (Ref. 1).
(§5) EC50 is the test compound concentration at the curve inflection point or half the effective response (parameter C of the fitted curve solution). GI50 is the concentration needed to reduce the observed growth by half (midway between the curve maximum and the time zero value). “Cell Count Activity Area” is an estimate of the integrated area above the curve (Barretina, et al. The Cancer Cell Line Encyclopedia enables predictive modelling of anticancer drug sensitivity. Nature 483: 603-607). […] In rare instances, values <0 or >10 may be observed. […] Curve-fitting, calculations, and report generation was performed using a custom data reduction engine and MathIQ based software (AIM).

SK-MEL-28 = assay: OncoPanel cell proliferation assay, SK-MEL-28; assay type: cell-based, human; settings: for Relative cell count (%) Mean: SK-MEL-28
Method: as §1, §2, §3, §4, §5

A431 = assay: OncoPanel cell proliferation assay, A431; assay type: cell-based, human; settings: for Relative cell count (%) Mean: A431
Method: as §1, §2, §3, §4, §5

SCaBER = assay: OncoPanel cell proliferation assay, SCaBER; assay type: cell-based, human
Method: as §1, §2, §3, §4, §5

OVCAR3 = assay: OncoPanel cell proliferation assay, OVCAR3; settings: for Relative cell count (%) Mean: OVCAR3
Method: Cells were seeded into 384-well plates and incubated in a humidified atmosphere of 5% CO2 at 37° C. Compounds were added the day following cell seeding. At the same time, a time zero untreated cell plate was generated. After a 3-day incubation period, cells were fixed and stained to allow fluorescence imaging of nuclei. Compounds (1 mM stock solutions) were serially diluted in half-log steps from the highest test concentration (1 micromol), and assayed over 10 concentrations with a maximum assay concentration of 0.1% DMSO. Automated fluorescence microscopy was carried out using a Molecular Devices ImageXpress Micro XL high-content imager, and images were collected with a 4× objective. 16-bit TIFF images were acquired and analyzed with MetaXpress 5.1.0.41 software.

SW684 = assay: OncoPanel cell proliferation assay, SW684; assay type: cell-based, human; settings: for Relative cell count (%) Mean: SW684
Method: as §1, with “Cells” for “Cells were grown in RPMI 1640, 10% FBS, 2 mM L-alanyl-L-glutamine, 1 mM Na pyruvate, or a special medium. Cells”
as §2, §3, §4
GI50 is the concentration needed to reduce the observed growth by half (midway between the curve maximum and the time zero value). […] In rare instances, values <0 or >10 may be observed. […] Curve-fitting, calculations, and report generation was performed using a custom data reduction engine and MathIQ based software (AIM).

CO[C@H]1C[C@@H]2CC[C@@H](C)[C@@](O)(O2)C(=O)C(=O)N2CCCC[C@H]2C(=O)O[C@H]([C@H](C)C[C@@H]2C[C@@H]3C[C@H]2C[C@H]3O)CC(=O)[C@H](C)/C=C(\C)[C@@H](O)[C@@H](OC)C(=O)[C@H](C)C[C@H](C)/C=C/C=C/C=C/1C [Formula I, 37R-hydroxynorbornylrapamycin]
Relative cell count (%) Mean (CML-T1; 1.00E+00 microM): 36.5%
Relative cell count (%) Mean (CML-T1; 1.00E−01 microM): 42.6%
Relative cell count (%) Mean (CML-T1; 1.00E−02 microM): 46.7%
Relative cell count (%) Mean (CML-T1; 1.00E−03 microM): 55.6%
Relative cell count (%) Mean (CML-T1; 1.01E−04 microM): 83.6%
Relative cell count (%) Mean (CML-T1; 3.16E−01 microM): 33.1%
Relative cell count (%) Mean (CML-T1; 3.17E−02 microM): 42.3%
Relative cell count (%) Mean (CML-T1; 3.17E−03 microM): 49.5%
Relative cell count (%) Mean (CML-T1; 3.18E−04 microM): 65.3%
Relative cell count (%) Mean (CML-T1; 3.18E−05 microM): 90.6%
EC50 (CML-T1; Homo sapiens, 72 h, CML-T1, 3-day incubation, read-out: Cell Count EC50): 0.317 nM
GI50 (CML-T1; Homo sapiens, 72 h, CML-T1, 3-day incubation, read-out: Cell Count GI50): 0.998 nM
IC50 (CML-T1; Homo sapiens, 72 h, CML-T1, 3-day incubation, read-out: Cell Count IC50): 2.51 nM
EC50 (SK-MEL-28; Homo sapiens, 72 h, SK-MEL-28, 3-day incubation, read-out: Cell Count EC50): 0.194 nM
GI50 (SK-MEL-28; Homo sapiens, 72 h, SK-MEL-28, 3-day incubation, read-out: Cell Count GI50): > 1000 nM
IC50 (SK-MEL-28; Homo sapiens, 72 h, SK-MEL-28, 3-day incubation, read-out: Cell Count IC50): > 1000 nM
EC50 (SK-MEL-28; Homo sapiens, Table 4 summary, SK-MEL-28, Melanoma, read-out: EC50): 0.19 nM
Cell Count Activity Area (SK-MEL-28; SK-MEL-28, scale 0-10): 1.87
Relative cell count (%) Mean (SK-MEL-28; 1.00E−01 microM): 65.6%
Relative cell count (%) Mean (SK-MEL-28; 1.00E−02 microM): 71.4%
Relative cell count (%) Mean (SK-MEL-28; 1.00E−03 microM): 75.0%
Relative cell count (%) Mean (SK-MEL-28; 1.01E−04 microM): 88.2%
Relative cell count (%) Mean (SK-MEL-28; 3.17E−02 microM): 68.9%
Relative cell count (%) Mean (SK-MEL-28; 3.17E−03 microM): 70.8%
Relative cell count (%) Mean (SK-MEL-28; 3.18E−04 microM): 79.6%
Relative cell count (%) Mean (SK-MEL-28; 3.18E−05 microM): 93.8%
Cell Count Activity Area (A431; A431, scale 0-10): 1.96
Relative cell count (%) Mean (A431; 1.00E+00 microM): 64.2%
Relative cell count (%) Mean (A431; 1.00E−01 microM): 72.8%
Relative cell count (%) Mean (A431; 1.00E−02 microM): 84.2%
Relative cell count (%) Mean (A431; 1.00E−03 microM): 93.5%
Relative cell count (%) Mean (A431; 1.01E−04 microM): 101.0%
Relative cell count (%) Mean (A431; 3.16E−01 microM): 66.5%
Relative cell count (%) Mean (A431; 3.17E−02 microM): 78.2%
Relative cell count (%) Mean (A431; 3.17E−03 microM): 84.4%
Relative cell count (%) Mean (A431; 3.18E−04 microM): 91.9%
Relative cell count (%) Mean (A431; 3.18E−05 microM): 104.6%
EC50 (A431; Homo sapiens, A-431, 72 h, A431, 3-day incubation, read-out: Cell Count EC50): 14.3 nM
GI50 (A431; Homo sapiens, A-431, 72 h, A431, 3-day incubation, read-out: Cell Count GI50): > 1000 nM
IC50 (A431; Homo sapiens, A-431, 72 h, A431, 3-day incubation, read-out: Cell Count IC50): > 1000 nM
EC50 (A431; Homo sapiens, A-431, Table 4 summary, A431, Skin, Head/Neck, read-out: EC50): 14 nM
Relative cell count (%) Mean (SCaBER; 1.00E+00 microM): 32.4%
Relative cell count (%) Mean (SCaBER; 1.00E−01 microM): 36.9%
Relative cell count (%) Mean (SCaBER; 1.00E−02 microM): 35.4%
Relative cell count (%) Mean (SCaBER; 1.00E−03 microM): 44.7%
Relative cell count (%) Mean (SCaBER; 1.01E−04 microM): 61.7%
Relative cell count (%) Mean (SCaBER; 3.16E−01 microM): 33.0%
Relative cell count (%) Mean (SCaBER; 3.17E−02 microM): 34.0%
Relative cell count (%) Mean (SCaBER; 3.17E−03 microM): 38.7%
Relative cell count (%) Mean (SCaBER; 3.18E−04 microM): 55.4%
Relative cell count (%) Mean (SCaBER; 3.18E−05 microM): 81.9%
EC50 (SCaBER; Homo sapiens, 72 h, 3-day incubation, read-out: Cell Count EC50): 0.0947 nM
GI50 (SCaBER; Homo sapiens, 72 h, 3-day incubation, read-out: Cell Count GI50): 0.262 nM
IC50 (SCaBER; Homo sapiens, 72 h, 3-day incubation, read-out: Cell Count IC50): 0.451 nM
EC50 (SCaBER; Homo sapiens, Table 4 summary, Bladder, read-out: EC50): 0.095 nM
Cell Count Activity Area (SCaBER; scale 0-10): 5.46
EC50 (OVCAR3; Homo sapiens): 650 nM
EC50 (OVCAR3; Homo sapiens, OVCAR-3, 72 h, read-out: Cell Count EC50): 646 nM
GI50 (OVCAR3; Homo sapiens, OVCAR-3, 72 h, read-out: Cell Count GI50): 65.8 nM
IC50 (OVCAR3; Homo sapiens, OVCAR-3, 72 h, read-out: Cell Count IC50): > 1000 nM
Cell Count Activity Area (OVCAR3; OVCAR3, scale 0-10): 2.43
Relative cell count (%) Mean (OVCAR3; 1.00E+00 microM): 61.8%
Relative cell count (%) Mean (OVCAR3; 1.00E−01 microM): 72.8%
Relative cell count (%) Mean (OVCAR3; 1.00E−02 microM): 85.0%
Relative cell count (%) Mean (OVCAR3; 1.00E−03 microM): 90.2%
Relative cell count (%) Mean (OVCAR3; 1.01E−04 microM): 93.3%
Relative cell count (%) Mean (OVCAR3; 3.16E−01 microM): 61.7%
Relative cell count (%) Mean (OVCAR3; 3.17E−02 microM): 79.9%
Relative cell count (%) Mean (OVCAR3; 3.17E−03 microM): 85.2%
Relative cell count (%) Mean (OVCAR3; 3.18E−04 microM): 89.7%
Relative cell count (%) Mean (OVCAR3; 3.18E−05 microM): 106.9%
EC50 (SW684; Homo sapiens, 72 h, SW684, 3-day incubation, read-out: Cell Count EC50): 0.477 nM
GI50 (SW684; Homo sapiens, 72 h, SW684, 3-day incubation, read-out: Cell Count GI50): 0.286 nM
IC50 (SW684; Homo sapiens, 72 h, SW684, 3-day incubation, read-out: Cell Count IC50): 21.1 nM
Cell Count Activity Area (SW684; SW684, scale 0-10): 3.93
Relative cell count (%) Mean (SW684; 1.00E+00 microM): 44.1%
Relative cell count (%) Mean (SW684; 1.00E−01 microM): 51.0%
Relative cell count (%) Mean (SW684; 1.00E−02 microM): 55.0%
Relative cell count (%) Mean (SW684; 1.00E−03 microM): 68.8%
Relative cell count (%) Mean (SW684; 1.01E−04 microM): 89.3%
Relative cell count (%) Mean (SW684; 3.16E−01 microM): 47.1%
Relative cell count (%) Mean (SW684; 3.17E−02 microM): 52.7%
Relative cell count (%) Mean (SW684; 3.17E−03 microM): 60.7%
Relative cell count (%) Mean (SW684; 3.18E−04 microM): 77.8%
Relative cell count (%) Mean (SW684; 3.18E−05 microM): 91.9%

— patent publication US20210024542A1 (Torcept Therapeutics, Inc., priority 2018, published 2021)
